The results in this text go back to US20240131007A1, “METHODS AND COMPOSITIONS FOR PICORNAVIRUS ANTI-VIRAL AGENTS” (University of Connecticut, priority 2022, published 2024).

For data set [1], the system named is EV-A71. In words: CPE inhibition assay (Cell Titer Glo) against EV-A71 in Vero cells. The data set is classed as cell-based, Enterovirus A71. Conditions: for IC50: Enterovirus A, EVA71, EV-A71, Vero cells, read-out: IC50.
The nature of data set [2]: Cytotoxicity assay (Cell Titer Glo). Conditions: African green monkey, CC50 (μM), Table 10, Scaffold 1; Vero cells.
Data set [3] has as its target T1, EV-A71 Δ2C^116-329 (Human enterovirus 71, UniProt Q66478).
T1 construct: EV-A71 Δ2C (amino acids 116-329) was designed with; made in house; host or cells: E. coli Rosetta 2(DE3) pLysS, pMALc5x vector
Briefly: biochemical. It is filed as biochemical.

Data set [4] is described as follows: in vitro. Conditions: African green monkey; for CC50 at 3 days: CC50 (μM).
[5] abbreviates: Table 10, Scaffold 1, CC50/IC50.
[6] abbreviates: Table 12, Scaffold 3, CC50/IC50.
The mark [7] stands for this setting: Table 13, Scaffold 4, CC50/IC50.

Like-named read-outs stand apart in the source and are kept apart here.

T1 sequence (Q66478 1227-1440, stated change not applied): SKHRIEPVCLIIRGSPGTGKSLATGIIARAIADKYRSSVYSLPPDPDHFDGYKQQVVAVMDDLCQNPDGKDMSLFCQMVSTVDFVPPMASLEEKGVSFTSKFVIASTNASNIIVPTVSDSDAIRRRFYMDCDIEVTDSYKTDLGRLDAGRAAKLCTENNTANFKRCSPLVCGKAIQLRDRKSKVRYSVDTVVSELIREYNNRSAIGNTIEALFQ

As to `O=C(Cc1cccs1)Nc1ccc(-c2nc3ccccc3[nH]2)cc1` [Compound 9, N-[4-(1H-benzimidazol-2-yl)phenyl]-2-(2-thienyl)acetamide], the IC50 in data set [1] (Table 10, Scaffold 1) was determined as 104 µM. Moreover, in data set [1] (setting [5]), the “Selectivity Index” value is listed as 3.26. Moreover, the CC50 at 3 days in data set [2] stood at 338 µM.
Take `Cc1cccc(C(=O)Nc2ccc(-c3nc4ccccc4[nH]3)cc2)c1` [Compound 12, N-[4-(1H-benzimidazol-2-yl)phenyl]-3-methylbenzamide]: the IC50 in data set [3] came out at 652 µM; in data set [1] (Table 10, Scaffold 1), 13.2 µM. Also, in data set [1] (setting [5]), the “Selectivity Index” value is on record as 32.71. In addition, the CC50 at 3 days in data set [4] stood at 432 µM.
`O=C(Nc1ccc(-c2nc3ccccc3[nH]2)cc1)c1c(F)c(F)c(F)c(F)c1F` [Compound 16, N-[4-(1H-benzimidazol-2-yl)phenyl]-2,3,4,5,6-pentafluorobenzamide]: the IC50 in data set [1] (Table 10, Scaffold 1) was > 25 µM. Besides, the CC50 at 3 days in data set [2] is > 400 µM.
On the same counts, the results for `O=C(CSc1ccc(Cl)cc1)Nc1ccc(-c2nc3ccccc3[nH]2)cc1` [Compound 25, N-[4-(1H-benzimidazol-2-yl)phenyl]-2-[(4-chlorophenyl)thio]acetamide] are > 25 µM and 582 µM.
Regarding `O=C(Nc1ccc(-c2nc3ccccc3[nH]2)cc1)c1ccc(C(=O)Nc2ccc(-c3nc4ccccc4[nH]3)cc2)cc1` [Compound 28, N,N′-bis[4-(1H-benzimidazol-2-yl)phenyl]terephthalamide], the IC50 in data set [3] was 0.55 µM; in data set [1] (Table 10, Scaffold 1), 41.7 µM. For the same molecule, the “Selectivity Index” value in data set [1] (setting [5]) was >9.6. The CC50 at 3 days in data set [4] is > 400 µM.
In the case of `Cc1ccc2[nH]c(-c3ccc(NC(=O)Cc4cccs4)cc3)nc2c1` [Compound 35, N-[4-(5-methyl-1H-benzimidazol-2-yl)phenyl]-2-(2-thienyl)acetamide], in data set [1] (Table 10, Scaffold 1), the IC50 is > 25 µM. Further, the CC50 at 3 days in data set [2] is > 400 µM.
As to `COc1ccc(C(=O)Nc2ccc(-c3nc4cc(C)ccc4[nH]3)cc2)cc1OC` [Compound 37, 3,4-dimethoxy-N-[4-(5-methyl-1H-benzimidazol-2-yl)phenyl]benzamide], the IC50 amounted to 20.6 µM in data set [3] and 69.1 µM in data set [1] (Table 10, Scaffold 1). In data set [1] (setting [5]), the “Selectivity Index” value is on record as >5.79. Further, the CC50 at 3 days in data set [4] is > 400 µM.
For `Cc1ccc2[nH]c(-c3ccc(NC(=O)c4ccc(Br)o4)cc3)nc2c1` [Compound 40, 5-bromo-N-[4-(5-methyl-1H-benzimidazol-2-yl)phenyl]-2-furamide], in that order: 37.3 µM, 81.9 µM, >4.89 and > 400 µM.
Regarding `Cc1ccc2[nH]c(-c3ccc(NC(=O)c4ccc(C)c(C)c4)cc3)nc2c1` [Compound 43, 3,4-dimethyl-N-[4-(5-methyl-1H-benzimidazol-2-yl)phenyl]benzamide], the half-inhibitory concentration (IC50) in data set [3] worked out at 55 µM; in data set [1] (Table 8, virus-induced CPE), 4.27 µM. Also, the “Selectivity Index” value in data set [1] (Table 8, CC50/IC50) turned out to be 39.86; in data set [1] (setting [5]), 39.86. The molecule also came in with a CC50 at 3 days in data set [4] of 170 µM.
`Cc1ccc2[nH]c(-c3ccc(NC(=O)c4cccc(Br)c4)cc3)nc2c1` [Compound 44, 3-bromo-N-[4-(5-methyl-1H-benzimidazol-2-yl)phenyl]benzamide]: the IC50 amounted to 19 µM in data set [3] and 10.5 µM in data set [1] (Table 10, Scaffold 1). Also, the “Selectivity Index” value in data set [1] (setting [5]) turned out to be 45.23. In data set [4], this molecule registered a CC50 at 3 days of 475 µM.
For `O=C(Nc1ccc(-c2nc3ccccc3o2)cc1)c1ccc(NC(=O)c2cc3ccccc3o2)cc1` [Compound 46, N-[4-({[4-(1,3-benzoxazol-2-yl)phenyl]amino}carbonyl)phenyl]-1-benzofuran-2-carboxamide], in that order: 17.4 µM, 40 µM, 34.49 and 1380 µM.
Regarding `O=C(Nc1ccc(-c2nc3cc4ccccc4cc3[nH]2)cc1)c1cccc(Br)c1` [Compound 48, 3-bromo-N-[4-(1H-naphtho[2,3-d]imidazol-2-yl)phenyl]benzamide], the half-maximal inhibitory concentration (IC50) was determined as 33.1 µM in data set [3] and 0.71 µM in data set [1] (Table 8, virus-induced CPE). The “Selectivity Index” value was 426.06 in data set [1] (Table 8, CC50/IC50) and 426.06 in data set [1] (Table 11, Scaffold 2, CC50/IC50). Besides, in data set [4], the CC50 at 3 days came to 302 µM.
With `O=C(Nc1cccc(-c2nc3cc4ccccc4cc3[nH]2)c1)c1ccco1` [Compound 50, N-[3-(1H-naphtho[2,3-d]imidazol-2-yl)phenyl]-2-furamide], in data set [1] (Table 11, Scaffold 2), the IC50 is > 25 µM. This molecule also showed a CC50 at 3 days in data set [4] of 562 µM.
On to `O=C(Nc1ccc2[nH]c(-c3ccc(Br)o3)nc2c1)c1ccc([N+](=O)[O-])cc1` [Compound 51, N-[2-(5-bromo-2-furyl)-1H-benzimidazol-5-yl]-4-nitrobenzamide], for which the IC50 in data set [3] was 54.1 µM; in data set [1] (Table 12, Scaffold 3) it was 72.4 µM. In addition, the “Selectivity Index” value in data set [1] (setting [6]) came to 1.74. Besides, the CC50 at 3 days in data set [4] worked out at 126 µM.
Consider `O=C(Nc1ccc2[nH]c(-c3ccccc3)nc2c1)c1ccccc1` [Compound 53, N-(2-phenyl-1H-benzimidazol-5-yl)benzamide], for which the “Selectivity Index” value in data set [1] amounted to 9.43. The IC50 in data set [1] (Table 12, Scaffold 3) turned out to be 13.2 µM. The molecule further yielded a CC50 in data set [4] of 125 µM.
`Cn1cccc1-c1nc2cc(NC(=O)c3ccccc3)ccc2[nH]1` [Compound 54, N-[2-(1-methyl-1H-pyrrol-2-yl)-1H-benzimidazol-5-yl]benzamide]: in data set [1] (Table 12, Scaffold 3), the 50% inhibitory concentration (IC50) was 47.6 µM. Besides, the “Selectivity Index” value in data set [1] (setting [6]) came out at 0.69. The molecule further registered a CC50 at 3 days in data set [4] of 33.1 µM.
For `Cn1cccc1-c1nc2cc(NC(=O)c3cccs3)ccc2[nH]1` [Compound 58, N-[2-(1-methyl-1H-pyrrol-2-yl)-1H-benzimidazol-5-yl]-2-thiophenecarboxamide], in that order: 23.7 µM, 2.66 and 62.8 µM.
Turning to `Cc1ccc2[nH]c(-c3ccc(N)cc3)nc2c1` [Compound 59, 4-(5-methyl-1H-benzimidazol-2-yl)aniline], the IC50 in data set [1] (Table 13, Scaffold 4) was > 25 µM. Besides, the CC50 at 3 days in data set [4] came out at 189 µM.
As for `Cc1ccc(-c2nc3ccccc3[nH]2)cc1NC(=O)c1ccco1` [Compound 60, N-[5-(1H-benzimidazol-2-yl)-2-methylphenyl]-2-furamide], the IC50 in data set [1] (Table 13, Scaffold 4) was > 25 µM. In addition, the CC50 at 3 days in data set [4] was > 400 µM.
Consider `Nc1ccc(-c2nc3ccc(Cl)cc3[nH]2)cc1` [Compound 61, 4-(6-chloro-1H-benzimidazol-2-yl)aniline], for which the IC50 in data set [1] (Table 13, Scaffold 4) is 51.3 µM. Further, the “Selectivity Index” value in data set [1] (setting [7]) came out at 2.46. In addition, the CC50 at 3 days in data set [4] turned out to be 126 µM.
Take `O=C(Nc1cccc(-c2nc3ccccc3[nH]2)c1)c1ccco1` [Compound 62, N-[3-(1H-benzimidazol-2-yl)phenyl]-2-furamide]: the IC50 in data set [1] (Table 13, Scaffold 4) turned out to be 50.2 µM. Moreover, the “Selectivity Index” value in data set [1] (setting [7]) was found to be 1.62. The same molecule showed a CC50 at 3 days in data set [4] of 81.5 µM.
With `Cc1ccc2[nH]c(-c3cccc(NC(=O)c4ccc(Br)o4)c3)nc2c1` [Compound 64, 5-bromo-N-[3-(5-methyl-1H-benzimidazol-2-yl)phenyl]-2-furamide], in data set [1] (Table 13, Scaffold 4), the IC50 worked out at 71.4 µM. The “Selectivity Index” value in data set [1] (setting [7]) stood at 0.61. This molecule showed a CC50 at 3 days in data set [4] of 43.8 µM.
Turning to `c1ccc2[nH]c(-c3ccc(-c4nc5ccccc5[nH]4)cc3)nc2c1` [Compound 65, 2,2′-(1,4-phenylene)bis-1H-benzimidazole], the IC50 in data set [1] (Table 8, virus-induced CPE) turned out to be 2.17 µM. Further, the “Selectivity Index” value in data set [1] (Table 8, CC50/IC50) was 174.52; in data set [1] (setting [7]), 174.52. In data set [4], this molecule registered a CC50 at 3 days of 379 µM.
Consider `Cc1ccc(-c2nc3ccccc3[nH]2)cc1NC(=O)c1cc2ccccc2o1` [Compound 66, N-[5-(1H-benzimidazol-2-yl)-2-methylphenyl]-1-benzofuran-2-carboxamide], for which the IC50 in data set [1] (Table 13, Scaffold 4) came to 8.52 µM. Also, the “Selectivity Index” value in data set [1] (setting [7]) was determined as 11.11. Further, the CC50 at 3 days in data set [4] turned out to be 94.7 µM.
Regarding `O=C(Nc1cccc(-c2nc3ccccc3[nH]2)c1)c1cc2ccccc2o1` [Compound 67, N-[3-(1H-benzimidazol-2-yl)phenyl]-1-benzofuran-2-carboxamide], in data set [1] (Table 13, Scaffold 4), the 50% inhibitory concentration (IC50) was determined as 14.9 µM. In addition, in data set [1] (setting [7]), the “Selectivity Index” value came to 2.89. This molecule showed a CC50 at 3 days in data set [4] of 43 µM.
Take `COc1ccccc1OCC(=O)Nc1ccc(-c2nc3cc(C)ccc3[nH]2)cc1` [Compound T1, 2-(2-methoxyphenoxy)-N-[4-(5-methyl-1H-benzimidazol-2-yl)phenyl]acetamide]: the IC50 in data set [1] (Table 6) turned out to be 5 µM. Also, in data set [1] (Table 6, CC50/IC50), the “Selectivity Index” value came out at 61.24. In data set [4], this molecule returned a CC50 at 3 days of 306 µM.
Take `COc1cc(C)c(S(=O)(=O)NCCc2c(C)[nH]c3ccccc23)cc1C` [Compound T2, 4-methoxy-2,5-dimethyl-N-[2-(2-methyl-1H-indol-3-yl)ethyl]benzenesulfonamide]: the IC50 in data set [1] (Table 6) worked out at 17 µM. The “Selectivity Index” value in data set [1] (Table 6, CC50/IC50) turned out to be 5.03. The molecule further gave a CC50 at 3 days in data set [4] of 85.4 µM.
For `O=C(Nc1ccc2[nH]c(-c3ccc(Br)o3)nc2c1)c1ccccc1` [Compound T4, N-[2-(5-bromo-2-furyl)-1H-benzimidazol-5-yl]benzamide], the IC50 in data set [1] (Table 6) was determined as 12.2 µM. The “Selectivity Index” value in data set [1] (Table 6, CC50/IC50) is listed as >16.33. For the same molecule, in data set [4], the CC50 at 3 days is > 200 µM.
On the same counts, the results for `COc1ccc(CCNC(=O)C(=O)c2c(-c3ccccc3)[nH]c3ccccc23)cc1OC` [Compound T6, N-[2-(3,4-dimethoxyphenyl)ethyl]-2-oxo-2-(2-phenyl-1H-indol-3-yl)acetamide] are 44.2 µM, >4.52 and > 200 µM.
